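48-hour exposure; five concentrations; linearly interpolated endpoints. At the GI50, growth is halved.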 Active and inactive are the calls of the source. No stated cut-off is given here; in the data, active = GI50 up to about 1.1 µM and inactive = higher.
Assays:
Assay in all cases: NCI tumour cell line growth inhibition, 48 h
UACC-257 = system: UACC-257
UACC-62 = system: UACC-62
HT-29 = system: HT-29
M14 = system: M14
A549 = system: A549
MDA-MB-231 = system: MDA-MB-231
SF-268 = system: SF-268
NCI-H226 = system: NCI-H226
SN12C = system: SN12C
HCC 2998 = system: HCC 2998
SK-MEL-5 = system: SK-MEL-5
786-0 = system: 786-0
OVCAR-5 = system: OVCAR-5
PC-3 = system: PC-3
T47D = system: T47D
CAKI-1 = system: CAKI-1
NCI-H460 = system: NCI-H460
HOP-92 = system: HOP-92
SK-OV-3 = system: SK-OV-3
RPMI-8226 = system: RPMI-8226

| SMILES | GI50 (UACC-257) | GI50 (UACC-62) | GI50 (HT-29) | GI50 (M14) | GI50 (A549) | GI50 (MDA-MB-231) | GI50 (SF-268) | GI50 (NCI-H226) | GI50 (SN12C) | GI50 (HCC 2998) | GI50 (SK-MEL-5) | GI50 (786-0) | GI50 (OVCAR-5) | GI50 (PC-3) | GI50 (T47D) | GI50 (CAKI-1) | GI50 (NCI-H460) | GI50 (HOP-92) | GI50 (SK-OV-3) | GI50 (RPMI-8226) |
| --- | --- | --- | --- | --- | --- | --- | --- | --- | --- | --- | --- | --- | --- | --- | --- | --- | --- | --- | --- | --- |
| CCOc1ccccc1Nc1ccc(N)cc1S(=O)(=O)O | > 100 µM (inactive) | > 100 µM (inactive) | > 100 µM (inactive) | > 100 µM (inactive) | > 100 µM (inactive) | > 100 µM (inactive) | > 100 µM (inactive) | > 100 µM (inactive) | > 100 µM (inactive) | > 100 µM (inactive) | > 100 µM (inactive) | > 100 µM (inactive) | > 100 µM (inactive) | > 100 µM (inactive) | > 100 µM (inactive) | > 100 µM (inactive) | > 100 µM (inactive) | > 100 µM (inactive) | – | – |
| O=C(c1cccs1)N(Cc1cccnc1)C(=S)N(Cc1cccnc1)C(=O)c1cccs1 | > 100 µM (inactive) | 60.7 µM (inactive) | > 100 µM (inactive) | 91.2 µM (inactive) | > 100 µM (inactive) | > 100 µM (inactive) | 35.6 µM (inactive) | > 100 µM (inactive) | 32.6 µM (inactive) | > 100 µM (inactive) | > 100 µM (inactive) | 3.56 µM (inactive) | > 100 µM (inactive) | 41.8 µM (inactive) | > 100 µM (inactive) | > 100 µM (inactive) | > 100 µM (inactive) | > 100 µM (inactive) | 37.8 µM (inactive) | – |
| COC(=O)c1cc(CC2Cc3cc4c(cc3C2)CCC4)cc2c1CCC2 | 37.2 µM (inactive) | – | 49 µM (inactive) | > 100 µM (inactive) | > 100 µM (inactive) | > 100 µM (inactive) | > 100 µM (inactive) | > 100 µM (inactive) | > 100 µM (inactive) | > 100 µM (inactive) | 33.9 µM (inactive) | > 100 µM (inactive) | > 100 µM (inactive) | 81.8 µM (inactive) | > 100 µM (inactive) | > 100 µM (inactive) | > 100 µM (inactive) | 88.9 µM (inactive) | > 100 µM (inactive) | 41 µM (inactive) |
| COc1cc(C2c3cc4c(cc3OC(NN=C(C)C)C2C)OCO4)cc(OC)c1O (stereo not drawn) | 89.3 µM (inactive) | 19.2 µM (inactive) | 36 µM (inactive) | 22.6 µM (inactive) | 22.9 µM (inactive) | 27.9 µM (inactive) | 31.5 µM (inactive) | > 100 µM (inactive) | 8.39 µM (inactive) | 14.4 µM (inactive) | 10.8 µM (inactive) | 28.1 µM (inactive) | 64.4 µM (inactive) | 20.8 µM (inactive) | 69.2 µM (inactive) | 61.5 µM (inactive) | – | 62.4 µM (inactive) | – | 6.21 µM (inactive) |
| CCCc1nc(Cl)c(Cl)c(Cl)n1 | 32.7 µM (inactive) | 36.5 µM (inactive) | > 47.6 µM (inactive) | 25.4 µM (inactive) | 19.1 µM (inactive) | 19.3 µM (inactive) | 11.9 µM (inactive) | 36.6 µM (inactive) | 19.6 µM (inactive) | 0.556 µM (active) | 44.5 µM (inactive) | 19.9 µM (inactive) | 31.8 µM (inactive) | 0.426 µM (active) | 17.5 µM (inactive) | 10.7 µM (inactive) | 38.9 µM (inactive) | 21 µM (inactive) | 53.6 µM (inactive) | – |
| OC(c1ccco1)C(F)(F)c1nc2ccccc2o1 (stereo not drawn) | > 100 µM (inactive) | > 100 µM (inactive) | > 100 µM (inactive) | 29.5 µM (inactive) | – | > 100 µM (inactive) | > 100 µM (inactive) | > 100 µM (inactive) | – | > 100 µM (inactive) | > 100 µM (inactive) | > 100 µM (inactive) | – | > 100 µM (inactive) | 61.5 µM (inactive) | > 100 µM (inactive) | > 100 µM (inactive) | > 100 µM (inactive) | 68.4 µM (inactive) | > 100 µM (inactive) |
| Cn1cnc(N2CCCC2)c(C#N)c1=O | > 100 µM (inactive) | > 100 µM (inactive) | > 100 µM (inactive) | > 100 µM (inactive) | > 100 µM (inactive) | > 100 µM (inactive) | > 100 µM (inactive) | > 100 µM (inactive) | > 100 µM (inactive) | > 100 µM (inactive) | > 100 µM (inactive) | > 100 µM (inactive) | > 100 µM (inactive) | > 100 µM (inactive) | > 100 µM (inactive) | > 100 µM (inactive) | > 100 µM (inactive) | > 100 µM (inactive) | – | > 100 µM (inactive) |
| COc1ccc(C2SCC(=O)N2NC(=O)C(C)Oc2ccccc2Cl)cc1 (stereo not drawn) | > 100 µM (inactive) | 46 µM (inactive) | 65.8 µM (inactive) | 41.9 µM (inactive) | 35.5 µM (inactive) | 26.9 µM (inactive) | > 100 µM (inactive) | 51.6 µM (inactive) | 63.2 µM (inactive) | > 100 µM (inactive) | 24.5 µM (inactive) | 98.6 µM (inactive) | > 100 µM (inactive) | 33.7 µM (inactive) | 27.2 µM (inactive) | > 100 µM (inactive) | 70.1 µM (inactive) | 23.7 µM (inactive) | – | 32.4 µM (inactive) |
